Measurements as given in patent US4778824A, “Method for suppressing a transplantation immunity and treating an allergic disease and an autoimmune disease” (Zaidan Hojin Biseibutsu Kagaku Kenkyu Kai, priority 1984, dated 1988).
Where a name gives a salt, the structure may show the parent alone.

Assays:
[1] = system: Skin allograft rejection (SHR to Fischer rats); experiment: Inhibition of rejection of skin allograft; assay type: in vivo; details: ± S.D.
Source text: In the next place, the present inventors conducted a skin graft test with rats. In accordance with the method of Denham et al. (Denham et al., International Archives of Allergy and Applied Immunology, vol. 62, pp. 443-458, 1980), the skin of the tail of SHR rats was peeled and allografted onto Fischer rats. […] The inhibitory action of spergualin on tissue rejections is expected to manifest itself not only in skin transplantation but also in the transplantation of such organs as the kidney, heart, spleen, lung, liver, bone marrow and endocrine organs.
Skin sections (5×10 mm) were peeled from the tails of SHR rats (female, 10 wk old) and transplanted to Fischer rats (female, 10 wk old) on the back. Varying doses of spergualin were administered intraperitoneally for a consecutive period of 10 or 20 days starting on the day following the transplantation. Complete necrosis of the graft was used as a measure of rejection and the inhibitory action of the compound was evaluated in terms of how long the rejection was postponed. […] The longer the period of administration, the greater the inhibitory action.

[2] = system: T-lymphocyte; experiment: Inhibition of Con A-induced reaction of T-lymphocyte blastogenesis (3H-thymidine uptake, BALB/c spleen cells); assay type: cell-based, BALB/c mice; details: Con A 5 μg/ml, 72 h; for ^3 H--thymidine uptake: ± S.D.
Method: (§1) The present inventors conducted tests to evaluate the actions of spergualin against the reaction of lymphocyte blastogenesis in accordance with the method of Waithe et al. (Waithe et al., Handbook of Experimental Immunology, page 26.1, 1978).
(§2) Spleen cells from BALB/c mice were distritubed among wells in a microplate so that each well contained 2×10^5 cells/0.2 ml. The compound was added to all wells but one, the latter being used as a control. Con A (5 μg/ml) was added to all the wells and the so prepared cell suspensions were cultivated in a 5% CO2 incubator for 72 hours at 37° C. Eight hours before the completion of the incubation, 1 μCi of ^3 H-thymidine was added to each well and the uptake of the thymidine by the cultured cells was measured with a liquid scintillation counter to estimate the progress of the reaction of T-lymphocyte blastogenesis. The percentage inhibition of the blastogenesis by the test compound was calculated by: […] wherein Adpm indicates the uptake count for the addition of only Con A and Bdpm, the count for the addition of both Con A and the test compound.

[3] = system: IgE antibody production; experiment: Inhibition of IgE antibody production against egg albumin (passive cutaneous anaphylaxis titer); assay type: in vivo, BALB/c mice; details: 50 mg/kg/day i.p., ± S.D.
Method: BALB/c mice (7 wk old, female) were challenged by intraperitoneal administration of 10 μg of egg albumin together with 4 mg of aluminum hydroxide gel. Thereafter, the mice were intraperitoneally administered 50 mg/kg/day of the test compound in accordance with the schedules shown in Table 5. After the challenge, blood was drawn from the fundus of each mouse at 10-day intervals for serum collection. The antibody titer of IgE in the serum was determined by passive cutaneous anaphylaxis as follows. Fischer 344 rats (female, 10 wk old) were injected with 0.05 ml of a diluted serum into the dorsal skin. Four hours later, 1 mg of egg albumin and 0.5 ml of 1% Evans blue were injected into the tail vein, and the final serum dilution that produced a blue spot of a diameter of at least 5 mm 30 minutes after the intravenous injection was used as a measure of the antibody titer.

[4] = system: B-lymphocyte; experiment: Inhibition of LPS-induced reaction of B-lymphocyte blastogenesis (3H-thymidine uptake); assay type: cell-based, BALB/c mice; details: LPS 100 μg/ml; for ^3 H--thymidine uptake: ± S.D.
Method: as §1, §2
The uptake of ^3 H-thymidine by B-cell was measured in accordance with the method used in Experiment 1, except that the inducer Con A was replaced by 100 μg/ml of LPS from E. coli. The percentage inhibition of blastogenesis by the test compound was also determined by the same method as used in Experiment 1.

[5] = system: IgG antibody production; experiment: Inhibition of IgG antibody production against sheep red blood cells (plaque-forming cells); assay type: in vivo, CDF 1 mice; details: 50 mg/kg/day i.p.; for IgG plaque forming cell count: ± S.D., significant (P < 0.0001); for inhibition at 50 mg/kg/day: Mus musculus, Erythrocyte, ip, IgG
Method: CDF 1 mice (6-10 wk old, female) were immunized by intravenous injection of 1×10^8 sheep red blood cells. The mice were intraperitoneally administered 50 mg/kg/day of the test compound for a period of 4 days starting on the day following the immunization or 3 days after that day. Seven days after the sensitization, spleen cells were isolated and the number of IgG plaque forming cells was counted by a known method (Yata et al., supra). As in Experiment 3, the percentage inhibition of IgG antibody production was determined.

[6] = system: experimental aplastic anemia; experiment: Effect on experimental aplastic anemia in mice; assay type: in vivo, C3H/HeN mice; details: 10 days; for MST (mean survival time): ± S.D.
Source text: Female C3H/HeN mice (Mls^c) of 10 week-old and female CBA mice (Mls^d) of 10 week-old were used. A group consisted of 10 mice. CBA lymph node cells (10^7) were i.v. into C3H/HeN mice after being subjected to 600 rads of whole-body X-irradiation, spergualin was given i.p. once a day for 10 days. The data is indicated as the mean survival time ±S.D.

[7] = Exp. 1, 3.13 mg/kg i.p. once a day
[8] = Exp. 2, 6.25 mg/kg i.p. once a day
[9] = Exp. 2, 25.0 mg/kg i.p. once a day
[10] = Exp. 2, 50.0 mg/kg i.p. once a day

In the case of `N=C(N)NCCCCC(O)CC(=O)NC(O)C(=O)NCCCCNCCCN` (stereo not shown) [spergualin (trihydrochloride)], the “Average No. of days before rejection” value ([1]; Run 1, 6.25 mg/kg/day i.p., days 1-10) is reported as 10.2 ± 2.6 days, the “Average No. of days before rejection” value ([1]; Run 1, 12.5 mg/kg/day i.p., days 1-10) is reported as 13.0 ± 4.2 days and the “Average No. of days before rejection” value ([1]; Run 1, 25.0 mg/kg/day i.p., days 1-10) is reported as 14.9 ± 6.9 days. The “Average No. of days before rejection” value ([1]; Run 1, 50.0 mg/kg/day i.p., days 1-10) was 17.0 ± 3.2 days, the “Average No. of days before rejection” value ([1]; Run 2, 25.0 mg/kg/day i.p., days 1-10) was 15.0 ± 5.2 days and the “Average No. of days before rejection” value ([1]; Run 2, 25.0 mg/kg/day i.p., days 1-20) was 31.0 ± 1.9 days. For the same compound, the “^3 H--thymidine uptake” value ([2]; 10 μg/ml) was 30,214 ± 25,033 dpm, the “^3 H--thymidine uptake” value ([2]; 100 μg/ml) was 788 ± 182 dpm and the inhibition at 10 µg/mL ([2]; Mus musculus, T-lymphocyte, 10 μg/ml) was 76.7%. For the same compound, the inhibition at 100 µg/mL ([2]; Mus musculus, T-lymphocyte, 100 μg/ml) was 99.4%, the “IgE antibody titer, 10 days” value ([3]; days 1-8 after challenge) was 13±33 dilutions and the “IgE antibody titer, 20 days” value ([3]; days 1-8 after challenge) was 60±31 dilutions. For the same compound, the “IgE antibody titer, 30 days” value ([3]; days 1-8 after challenge) was 320±0 dilutions, the “IgE antibody titer, 40 days” value ([3]; days 1-8 after challenge) was 320±0 dilutions and the “IgE antibody titer, 10 days” value ([3]; days 1-16 after challenge) was 0±0 dilutions. For the same compound, the “IgE antibody titer, 20 days” value ([3]; days 1-16 after challenge) was 8±9 dilutions, the “IgE antibody titer, 30 days” value ([3]; days 1-16 after challenge) was 80±120 dilutions and the “IgE antibody titer, 40 days” value ([3]; days 1-16 after challenge) was 200±131 dilutions. For the same compound, the “IgE antibody titer, 10 days” value ([3]; days 9-16 after challenge) was 120±98 dilutions, the “IgE antibody titer, 20 days” value ([3]; days 9-16 after challenge) was 110±106 dilutions and the “IgE antibody titer, 30 days” value ([3]; days 9-16 after challenge) was 320±0 dilutions. The “IgE antibody titer, 40 days” value ([3]; days 9-16 after challenge) was 480±392 dilutions, the “^3 H--thymidine uptake” value ([4]; 10 μg/ml) was 38,842 ± 21,573 dpm and the “^3 H--thymidine uptake” value ([4]; 100 μg/ml) was 396 ± 216 dpm. The inhibition at 10 µg/mL ([4]; Mus musculus, 10 μg/ml) was 83.4%, the inhibition at 100 µg/mL ([4]; Mus musculus, 100 μg/ml) was 99.8% and the “IgG plaque forming cell count” value ([5]; days 1-4 after sensitization) was 17 ± 16 cells/10^6 spleen cells. For the same compound, the “IgG plaque forming cell count” value ([5]; days 3-6 after sensitization) was 19 ± 15 cells/10^6 spleen cells, the inhibition at 50 mg/kg/day ([5]; days 1-4 after sensitization) was 96.7% and the inhibition at 50 mg/kg/day ([5]; days 3-6 after sensitization) was 96.3%. For the same compound, the “30-day survivors, Survivors/Total” value [6, 7] was 2/10, the “MST (mean survival time)” value [6, 7] was 16.3 ± 8.1 days and the “30-day survivors, Survivors/Total” value ([6]; Exp. 1, 6.25 mg/kg i.p. once a day) was 6/10. For the same compound, the “MST (mean survival time)” value ([6]; Exp. 1, 6.25 mg/kg i.p. once a day, P < 0.05) was 22.6 ± 9.7 days, the “30-day survivors, Survivors/Total” value ([6]; Exp. 1, 12.5 mg/kg i.p. once a day) was 10/10 and the “MST (mean survival time)” value ([6]; Exp. 1, 12.5 mg/kg i.p. once a day, P < 0.01) was 30.0 ± 0.0 days. The “30-day survivors, Survivors/Total” value ([6]; Exp. 1, 25.0 mg/kg i.p. once a day) was 6/10, the “MST (mean survival time)” value ([6]; Exp. 1, 25.0 mg/kg i.p. once a day, P < 0.05) was 23.6 ± 8.6 days and the “30-day survivors, Survivors/Total” value [6, 8] was 3/10. For the same compound, the “MST (mean survival time)” value [6, 8] was 20.2 ± 8.4 days, the “30-day survivors, Survivors/Total” value ([6]; Exp. 2, 12.5 mg/kg i.p. once a day) was 6/10 and the “MST (mean survival time)” value ([6]; Exp. 2, 12.5 mg/kg i.p. once a day, P < 0.05) was 23.0 ± 9.4 days. For the same compound, the “30-day survivors, Survivors/Total” value [6, 9] was 4/10, the “MST (mean survival time)” value [6, 9] was 20.7 ± 8.5 days and the “30-day survivors, Survivors/Total” value [6, 10] was 0/10. The “MST (mean survival time)” value [6, 10] was 12.6 ± 3.9 days.
